The target of data set [1] is T1, CDK12/13 (Homo sapiens, UniProt Q14004).
T1 construct: endogenous in cells; host or cells: KBM7 cells
Put plainly: CDK12/13 destabilization (expression proteomics and Western blot). It counts as cell-based. To be noted: expression proteomics, drug vs DMSO; Table 4, log2FC < −0.3. On the procedure: (§1) The hypomorphic phenotype of the mutated UBE2M allele in KBM7 cells (KBM7 UBE2M^mut cells) was assessed. In this regard, CRISPR/Cas9-induced mutation of UBE2M inactivated CRL activity including CRL4^CRBN and CRL2^VHL. […] Additionally, CCNK destabilization by all three compounds was validated via time-resolved immunoblots wherein CCNK degradation was evident after two hours (FIG. 19c).
(§2) PBS-washed cell pellets were lysed in 50 mM Tris pH 7.9, 8M Urea and 1% CHAPS and incubated with shaking at 4° C. for at least 30 min. 20 μg of supernatants were run and transferred for detection. Antibodies used: CUL1 (Santa Cruz Biotechnology, sc-1276), CUL2 (Sigma-Aldrich, SAB2501565-100), CUL3 (Cell Signaling Technology, 2759), CUL4A (Cell Signaling Technology, 2699S), CUL4B (Proteintech, 12916-1-AP), CUL5 (Santa Cruz Biotechnology, sc-373822), UBE2M (Santa Cruz Biotechnology, sc-390064), DDB1 (Cell Signaling Technology, 5428S), CCNK (Bethyl, A301-939A), CDK12 (Cell Signaling Technology, 11973S), CDK13 (Bethyl, A301-458A), RBM39 (1:500, Santa Cruz Biotechnology sc-376531), V5 (Cell Signaling Technology, 13202), Ubiquityl-Histone H2A (K119) (Cell Signaling, 8240-20). ACTIN (Sigma-Aldrich, A5441), VINCUL1N (Santa Cruz Biotechnology, sc-25336). Secondary antibodies anti-mouse/rabbit/goat (Jackson ImmunoResearch 115-035-003, 111-035-003 and 705-035-003).
(§3) Comparison of overall proteome-wide changes in KBM7 cells treated with IC020772.1 (2.5 μM), IC021313.2 (7 μM) or T6938051 (3.5 μM) for 5 h and 12h, using quantitative proteomics based on isobaric tagging.
A general note: Immunoblotting shows a protein as a band on a membrane.

Data set [2] deals with T2, CDK12/13 (Homo sapiens, UniProt Q9NYV4).
T2 construct: endogenous in cells; host or cells: KBM7 cells
T2 sequence (Q9NYV4 whole entry): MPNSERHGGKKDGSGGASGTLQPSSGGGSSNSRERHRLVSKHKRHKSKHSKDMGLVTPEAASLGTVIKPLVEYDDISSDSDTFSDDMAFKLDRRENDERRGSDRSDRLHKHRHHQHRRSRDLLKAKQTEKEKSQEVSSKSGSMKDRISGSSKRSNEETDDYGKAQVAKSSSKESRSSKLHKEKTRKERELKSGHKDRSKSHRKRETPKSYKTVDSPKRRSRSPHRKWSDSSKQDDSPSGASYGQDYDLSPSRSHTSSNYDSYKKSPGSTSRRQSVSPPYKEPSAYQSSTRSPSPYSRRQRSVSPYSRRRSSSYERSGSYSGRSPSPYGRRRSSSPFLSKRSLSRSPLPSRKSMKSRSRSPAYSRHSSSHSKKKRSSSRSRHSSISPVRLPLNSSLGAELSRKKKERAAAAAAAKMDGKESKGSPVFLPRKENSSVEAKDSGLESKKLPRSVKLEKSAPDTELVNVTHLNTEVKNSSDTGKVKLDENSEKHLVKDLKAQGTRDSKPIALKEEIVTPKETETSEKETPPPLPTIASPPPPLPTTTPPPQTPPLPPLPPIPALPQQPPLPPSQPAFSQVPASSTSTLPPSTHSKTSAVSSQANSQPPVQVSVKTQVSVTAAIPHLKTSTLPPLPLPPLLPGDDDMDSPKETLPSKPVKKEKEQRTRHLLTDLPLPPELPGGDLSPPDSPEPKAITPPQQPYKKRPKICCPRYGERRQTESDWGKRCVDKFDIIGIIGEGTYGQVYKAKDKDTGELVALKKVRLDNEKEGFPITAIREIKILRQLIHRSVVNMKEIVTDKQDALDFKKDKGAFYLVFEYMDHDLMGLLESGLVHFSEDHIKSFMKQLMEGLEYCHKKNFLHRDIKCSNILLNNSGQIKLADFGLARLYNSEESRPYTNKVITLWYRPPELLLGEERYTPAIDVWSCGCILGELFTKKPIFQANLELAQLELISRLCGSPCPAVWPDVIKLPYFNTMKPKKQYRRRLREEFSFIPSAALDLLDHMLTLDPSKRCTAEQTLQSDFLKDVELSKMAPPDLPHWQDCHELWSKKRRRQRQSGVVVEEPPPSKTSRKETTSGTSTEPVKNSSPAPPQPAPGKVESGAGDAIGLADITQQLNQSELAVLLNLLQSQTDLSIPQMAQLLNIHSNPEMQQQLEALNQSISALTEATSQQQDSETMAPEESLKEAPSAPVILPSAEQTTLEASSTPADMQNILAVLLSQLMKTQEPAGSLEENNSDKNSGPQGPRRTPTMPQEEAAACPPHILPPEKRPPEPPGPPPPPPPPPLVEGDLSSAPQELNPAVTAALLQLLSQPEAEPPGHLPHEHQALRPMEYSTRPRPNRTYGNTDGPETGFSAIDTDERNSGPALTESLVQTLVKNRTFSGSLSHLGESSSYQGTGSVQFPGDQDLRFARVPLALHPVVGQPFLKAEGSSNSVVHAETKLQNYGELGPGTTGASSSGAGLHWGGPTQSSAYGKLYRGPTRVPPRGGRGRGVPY
T2 sequence (O75909 whole entry partner): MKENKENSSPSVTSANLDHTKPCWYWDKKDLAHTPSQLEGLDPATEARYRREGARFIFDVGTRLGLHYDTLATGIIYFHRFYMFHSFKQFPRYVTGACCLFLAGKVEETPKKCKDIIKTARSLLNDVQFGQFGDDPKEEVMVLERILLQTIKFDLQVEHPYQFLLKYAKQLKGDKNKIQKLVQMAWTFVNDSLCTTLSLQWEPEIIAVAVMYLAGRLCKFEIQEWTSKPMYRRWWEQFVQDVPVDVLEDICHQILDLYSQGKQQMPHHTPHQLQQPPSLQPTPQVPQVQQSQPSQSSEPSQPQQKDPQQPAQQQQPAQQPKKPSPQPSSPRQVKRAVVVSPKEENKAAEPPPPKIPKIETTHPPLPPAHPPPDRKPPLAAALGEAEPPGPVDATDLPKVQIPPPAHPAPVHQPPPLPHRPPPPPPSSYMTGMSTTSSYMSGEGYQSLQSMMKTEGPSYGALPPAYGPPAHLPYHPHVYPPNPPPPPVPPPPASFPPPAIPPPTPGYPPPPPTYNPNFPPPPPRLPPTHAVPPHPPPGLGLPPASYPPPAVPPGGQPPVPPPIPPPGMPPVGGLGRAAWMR
T2 sequence (Q16531 whole entry partner): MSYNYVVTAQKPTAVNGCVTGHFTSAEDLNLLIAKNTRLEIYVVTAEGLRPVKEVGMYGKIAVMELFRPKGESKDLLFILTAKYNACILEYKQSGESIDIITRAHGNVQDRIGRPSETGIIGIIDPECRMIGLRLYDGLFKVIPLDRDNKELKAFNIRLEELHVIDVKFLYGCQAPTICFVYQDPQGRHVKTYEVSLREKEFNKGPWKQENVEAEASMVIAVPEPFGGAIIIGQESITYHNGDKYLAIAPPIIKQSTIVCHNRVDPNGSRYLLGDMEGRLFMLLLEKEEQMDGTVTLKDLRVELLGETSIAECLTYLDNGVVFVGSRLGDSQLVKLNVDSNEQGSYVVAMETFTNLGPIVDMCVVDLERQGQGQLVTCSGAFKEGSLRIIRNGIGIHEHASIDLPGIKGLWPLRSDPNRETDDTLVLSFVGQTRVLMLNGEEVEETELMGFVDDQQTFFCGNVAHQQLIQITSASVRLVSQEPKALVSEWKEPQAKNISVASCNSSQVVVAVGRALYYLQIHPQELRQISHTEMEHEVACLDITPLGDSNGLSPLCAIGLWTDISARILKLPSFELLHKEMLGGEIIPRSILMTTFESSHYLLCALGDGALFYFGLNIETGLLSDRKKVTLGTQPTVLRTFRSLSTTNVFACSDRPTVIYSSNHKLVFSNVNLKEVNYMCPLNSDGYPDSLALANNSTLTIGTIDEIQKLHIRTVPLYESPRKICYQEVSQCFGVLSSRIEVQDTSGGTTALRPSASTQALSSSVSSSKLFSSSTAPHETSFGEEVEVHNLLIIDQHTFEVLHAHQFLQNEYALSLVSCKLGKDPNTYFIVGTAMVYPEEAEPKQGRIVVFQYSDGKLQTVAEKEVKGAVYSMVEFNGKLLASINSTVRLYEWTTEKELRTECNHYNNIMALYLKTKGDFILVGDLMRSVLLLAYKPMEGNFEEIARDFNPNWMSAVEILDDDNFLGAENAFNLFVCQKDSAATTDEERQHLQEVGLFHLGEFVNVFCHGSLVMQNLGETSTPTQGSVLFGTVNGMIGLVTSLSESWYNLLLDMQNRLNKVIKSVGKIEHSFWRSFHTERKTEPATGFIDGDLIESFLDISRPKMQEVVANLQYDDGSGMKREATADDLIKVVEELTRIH
Described as above. It counts as cell-based. The procedure: as §1, §2, §3

The subject of another data set is KBM7 CUL4Amut cells. Put plainly: Cell viability assay, KBM7 CUL4A mutant. It counts as cell-based, human. The following applies: Table 2, data of FIG. 6; 3-day treatment; read-out: LC50 CUL4Amut. The procedure:
KBM7 cells with the specified genetic backgrounds were grown in IMDM supplemented with 10% FBS and 1% penicillin/streptomycin (pen/strep). AsPC1, HCT116, NCI-H446 and 293T cells were grown in DMEM 10% FBS and 1% pen/strep. MV4; 11, Jurkat and Be (2) C cells were grown in RPMI 10% FBS 1% pen/strep. KBM7, AsPC1 and HCT116 cells expressing Cas9 were generated using the plasmid Lenti_Cas9_Blasti (Addgene #52962). The lentiviral plasmid lentiGuide-Puro (Addgene #52963) was used to express sgRNAs against the genes UBE2M (in KBM7-Cas9, AsPC1-Cas9 and HCT116-Cas9 cells), UBE2G1 (in KBM7-Cas9 cells) and […] (in KBM7-Cas9 cells). The lentiviral plasmid lentiGuide-Puro-IRES-mCherry (modified from Addgene #52963) was used to express sgRNAs against CUL4A (in KBM7-Cas9 cells). The lentiviral plasmid pLenti-PGK-Hygro-DEST-UBE2M was generated by Gateway cloning (empty destination vector Addgene #19066), and used to generate UBE2M^resc KBM7 cells.
Validating the previous results, a strong enrichment for cells transduced with UBE2Mtargeting sgRNAs was detected. […] The fact that Rbx1 was not detected in the initial experiment is likely explained by the fact that prolonged loss of RBX1 function is detrimental to cellular fitness. […] To understand if the tested compounds were uniquely dependent on CUL4B over CUL4A, a differential drug efficacy was assessed in dose ranging viability assays in KBM7 WT cells and isogenic clones deficient in either CUL4A, CUL4B, and UBE2G1. […]
KBM7^WT, mutant KBM7 clones (UBE2M^mut, UBE2M^resc, UBE2G1^mut CUL4A^mut, CUL4B^mut), and 3-day doxycycline pretreated KBM7^iCas9_sgDDB1 cells were seeded at a cell density of 50,000 cells/mL in 96-well plates with DMSO or drug, in triplicates. […] Cells were treated for 3 days, after which cell viability was assessed according to manufacturer's protocol (CellTiter Glo, Promega G7570). Survival curves and EC50 values were calculated by best-fit analysis of the log 10 drug concentration to fold change of drug-treated cells over DMSO-treated cells. […]

Data set [3] deals with KBM7 WT and UBE2Mmut cells. Put plainly: Primary phenotypic screen, differential viability KBM7 WT vs UBE2M mutant. It counts as cell-based, human. To be noted: 10 μM and 500 nM, 3 days. On the procedure: Following this observation, it was rationalized that novel small molecule degraders can be identified in an unbiased manner, simply by searching for compounds that lose activity in the absence of UBE2M. 2000 small molecules, mostly of unknown function/target, were tested for their antiproliferative effects in human leukemia cells (KBM7). These cells were either transduced with a control sgRNA (KBM7WT), or with an sgRNA targeting UBE2M, leading to a hypomorph (deletion of six amino acids) with a functional impairment (UBE2Mmut).
KBM7^WT and UBE2M^mut cells were treated with a compound library (2000 cytotoxic diverse small-molecules, mostly of unknown function/target). Briefly, the screening was divided in three parts 1) primary screening, 2) follow up and 3) validation. During the primary screening, cells were treated with 10 μM and 500 nM of every compound. […] After 3 days of treatment, cell viability was measured (CellTiter Glo, Promega). The screen was perform in 384-well plates (Corning 3712) and the reagent/compound dispensing system used was: Echo 520 Liquid Handler, Multidrop™ Combi Reagent Dispenser. Control compounds were included in several wells, in all the plates. Method for validation of IC021313.2, IC020822.1, IC020772.1, T6938051 as described above in (i).

T1 sequence (O75909 whole entry): as the sequence (O75909 whole entry partner) above
T1 sequence (Q16531 whole entry, further chain): as the sequence (Q16531 whole entry partner) above
T1 sequence (Q14004 other isoform, or with tags, fused parts or gaps): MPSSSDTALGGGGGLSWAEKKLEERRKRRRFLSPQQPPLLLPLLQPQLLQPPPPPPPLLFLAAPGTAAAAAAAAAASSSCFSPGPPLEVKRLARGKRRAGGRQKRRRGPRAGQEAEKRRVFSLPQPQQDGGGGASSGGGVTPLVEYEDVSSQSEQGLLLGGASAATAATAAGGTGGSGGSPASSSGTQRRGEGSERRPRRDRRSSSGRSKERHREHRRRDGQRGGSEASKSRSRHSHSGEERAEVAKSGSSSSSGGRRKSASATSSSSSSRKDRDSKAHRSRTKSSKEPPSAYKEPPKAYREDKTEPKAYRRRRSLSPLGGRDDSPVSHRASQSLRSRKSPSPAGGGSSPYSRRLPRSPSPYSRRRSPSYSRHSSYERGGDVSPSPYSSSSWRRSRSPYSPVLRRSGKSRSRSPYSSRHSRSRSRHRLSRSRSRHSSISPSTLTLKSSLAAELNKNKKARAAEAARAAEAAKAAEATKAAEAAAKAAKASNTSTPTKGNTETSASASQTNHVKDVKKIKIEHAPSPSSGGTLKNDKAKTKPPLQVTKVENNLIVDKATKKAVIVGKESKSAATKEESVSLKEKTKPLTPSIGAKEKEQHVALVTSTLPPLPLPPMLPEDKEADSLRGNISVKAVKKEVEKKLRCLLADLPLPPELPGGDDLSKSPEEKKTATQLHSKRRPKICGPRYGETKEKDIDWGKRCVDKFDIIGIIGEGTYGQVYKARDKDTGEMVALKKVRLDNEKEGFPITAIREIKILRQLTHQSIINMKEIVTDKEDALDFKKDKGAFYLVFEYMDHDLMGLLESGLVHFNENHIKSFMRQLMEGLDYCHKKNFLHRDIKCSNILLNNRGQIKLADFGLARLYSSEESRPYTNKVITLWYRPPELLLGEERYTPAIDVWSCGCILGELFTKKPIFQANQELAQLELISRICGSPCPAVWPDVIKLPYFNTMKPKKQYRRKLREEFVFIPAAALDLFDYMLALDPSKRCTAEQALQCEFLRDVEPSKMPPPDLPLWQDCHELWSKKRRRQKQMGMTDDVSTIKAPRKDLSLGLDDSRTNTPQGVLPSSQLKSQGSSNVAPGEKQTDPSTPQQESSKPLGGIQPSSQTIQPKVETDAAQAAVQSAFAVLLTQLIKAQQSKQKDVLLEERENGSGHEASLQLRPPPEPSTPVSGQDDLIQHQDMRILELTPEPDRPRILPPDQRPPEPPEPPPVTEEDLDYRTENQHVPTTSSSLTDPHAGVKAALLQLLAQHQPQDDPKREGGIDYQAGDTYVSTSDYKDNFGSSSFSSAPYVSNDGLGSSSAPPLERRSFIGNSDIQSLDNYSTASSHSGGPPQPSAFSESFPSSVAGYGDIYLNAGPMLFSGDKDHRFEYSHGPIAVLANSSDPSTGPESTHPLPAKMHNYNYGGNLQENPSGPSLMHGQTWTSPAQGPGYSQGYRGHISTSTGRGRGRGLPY

As for `O=C(CSc1nc2ccccc2[nH]1)Nc1ccc(Cl)cn1` [IC021313.2], the “logFC (IC021313.2/DMSO), CDK13 (Q14004-2)” value at CDK12/13 [1] is given as −0.6574. The “logFC (IC021313.2/DMSO), CDK12 (Q9NYV4-1)” value at CDK12/13 [2] (expression proteomics, drug vs DMSO, Table 4, log2FC < −0.3) is listed as −0.897. Moreover, the CC50 in the data set with KBM7 CUL4Amut cells is 1560 nM. In addition, the “hit in differential viability screen” value in data set [3] is listed as “stood out in terms of fold-change significance”.

On to `Cc1ccc(C(=O)N2CSCC2C(=O)N=c2[nH]cc(C)s2)o1` (stereo not drawn) [Compound T6938051], for which, in the data set on KBM7 CUL4Amut cells, the CC50 worked out at 2260 nM. In addition, the “hit in differential viability screen” value in data set [3] was “stood out in terms of fold-change significance”.

As for `O=C(CSc1nnc2c(n1)[nH]c1ccccc12)Nc1ccc(Cl)cn1` [IC020772.1], the “log2FC (IC020772.1/DMSO)” value on CDK12/13 [2] (CDK12 (Q9NYV4-1)) is on record as −1.171. Besides, the CC50 in the data set on KBM7 CUL4Amut cells was 1220 nM. For the same compound, the “hit in differential viability screen” value in data set [3] is “stood out in terms of fold-change significance”.

These data come from US12410152B2, “Oxazole and thioazole-type cullin ring ubiquitin ligase compounds and uses thereof” (Proxygen GmbH, priority 2019, dated 2025).
